In patent publication US20260356840A1, “[1,2,4]TRIAZOLO[1,5-A]PYRIMIDINONE WRN INHIBITORS” (Nimbus Wadjet, Inc., priority 2023, published 2026):

Biological target: T1, human Werner helicase (Uniprot Q14191, amino acids 517-1235 with L1074F point mutation), WRN-BV08 (Homo sapiens, UniProt Q14191, L1074F)
T1 construct: Uniprot Q14191, amino acids 517-1235 with L1074F point mutation; TEV cleavable 8xHis tag (C, cleaved yes); made in house; host or cells: Sf9 insect cells (baculovirus, pFastBac)
Assay: WRN (BV08) ADP-Glo Assay
Format: biochemical
Procedure: DNA duplex was synthesized at BGI (Shenzhen, China) and was composed of strand 1 with the sequence 5′-[…]-3′ (SEQ ID NO.: 1) and strand 2 with the sequence 5′-[…]-3′ (SEQ ID NO.: 2). DNA strands were annealed by heating to 95 °C for 5 minutes followed by slow cooling to room temperature. […] DMSO (0.1 μl) was added to columns 12, rows A-H and column 24, rows I-P for the maximum signal control.
Where RLU=relative luminescence units, sample=signal in sample well, and MIN and MAX are the respective minimum and maximum signal controls. • Four-parameter IC50 fit equation:
Y=Bottom+(Top−Bottom)/(1+(IC50/X)^Hill Slope)
Where top and bottom are normally allowed to float but may be fixed at 100 or 0 respectively in a 3-parameter fit. Y is the % inhibition and X is the compound concentration.
Molecular Biology and virus production. […] The baculovirus from the expression plasmid WRN-BV08 was generated from transfection and amplification following the manufacturer's instructions.
Sf9 cells grown in SF900II media were infected with 1:200 WRN-BV08 P2 virus and incubated for protein expression for 72 h at 27 °C. The WRN protein was purified using the following protocol. The cell pellets were thawed and resuspended in buffer A (50 mM Tris, pH 7.5, 500 mM NaCl, 1 mM TCEP, 10% Glycerol) supplemented with 0.5% CHAPS, 1 mM [COMPOUND LEFT OUT], 1 μg/ml Leupeptin, 1 μg/ml Pepstatin, and the Pierce Universal Nuclease and cocktail tablet. Cleared lysates were loaded onto a Ni Sepharose™ excel column and washed with buffer A and bound protein was eluted with buffer A supplemented with 300 mM imidazole. The eluted protein was dialyzed against buffer A and digested by His-tagged TEV (1:5 ratio) overnight at 4 °C. […] Untagged WRN protein was eluted from the column with buffer A supplemented with 20 mM imidazole, dialyzed overnight into buffer B (50 mM Tris, pH 7.5, 1 mM TCEP, 10% Glycerol) supplemented with 150 mM NaCl and loaded onto a Heparin column. Proteins were eluted with a step gradient of buffer B supplemented with 150 mM, 200 mM, 300 mM and 500 mM NaCl.

T1 sequence (Q14191 517-1235 L1074F): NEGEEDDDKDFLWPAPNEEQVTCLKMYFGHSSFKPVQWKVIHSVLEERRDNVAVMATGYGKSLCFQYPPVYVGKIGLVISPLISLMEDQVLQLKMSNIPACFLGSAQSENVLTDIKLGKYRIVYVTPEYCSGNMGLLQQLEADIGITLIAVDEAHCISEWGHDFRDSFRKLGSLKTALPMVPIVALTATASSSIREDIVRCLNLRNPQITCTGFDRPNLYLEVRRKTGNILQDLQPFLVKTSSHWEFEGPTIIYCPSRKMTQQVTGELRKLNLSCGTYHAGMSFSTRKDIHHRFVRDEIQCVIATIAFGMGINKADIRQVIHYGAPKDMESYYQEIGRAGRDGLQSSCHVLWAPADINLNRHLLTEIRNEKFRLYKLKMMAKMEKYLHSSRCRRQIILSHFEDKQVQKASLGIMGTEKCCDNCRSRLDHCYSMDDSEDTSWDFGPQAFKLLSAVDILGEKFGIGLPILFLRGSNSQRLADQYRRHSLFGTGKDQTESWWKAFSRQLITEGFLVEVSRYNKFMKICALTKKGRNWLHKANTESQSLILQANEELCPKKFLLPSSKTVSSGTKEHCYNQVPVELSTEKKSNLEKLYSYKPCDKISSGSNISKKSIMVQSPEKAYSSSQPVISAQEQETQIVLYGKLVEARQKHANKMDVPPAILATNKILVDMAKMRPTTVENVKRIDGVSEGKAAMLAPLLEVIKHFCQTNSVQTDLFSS

IC50 [µM] | Structure (SMILES)
0.05 to 0.1 | CCc1c(N2CCN(C(=O)c3ncc(C)s3)CC2)c(=O)n2nc(-c3ccnc(OC)c3)nc2n1CC(=O)Nc1ccc(C(F)(F)F)cc1Cl [Compound I-58, N-[2-chloro-4-(trifluoromethyl)phenyl]-2-[5-ethyl-2-(2-methoxypyridin-4-yl)-6-[4-(5-methyl-1,3-thiazole-2-carbonyl)piperazin-1-yl]-7-oxo-4H,7H-[1,2,4]triazolo[1,5-a]pyrimidin-4-yl]acetamide]
0.005 to 0.05 | CCc1c(N2CCN(C(=O)C(F)F)CC2)c(=O)n2nc(-c3ccnc(OC)c3)nc2n1CC(=O)Nc1ccc(C(F)(F)F)cc1Cl [Compound I-53, N-[2-chloro-4-(trifluoromethyl)phenyl]-2-{6-[4-(2,2-difluoroacetyl)piperazin-1-yl]-5-ethyl-2-(2-methoxypyridin-4-yl)-7-oxo-4H,7H-[1,2,4]triazolo[1,5-a]pyrimidin-4-yl}acetamide]
0.005 to 0.05 | CCc1c(N2CCN(C(=O)c3cnnn3C)CC2)c(=O)n2nc(-c3ccnc(OC)c3)nc2n1CC(=O)Nc1ccc(C(F)(F)F)cc1Cl [Compound I-63, N-[2-chloro-4-(trifluoromethyl)phenyl]-2-[5-ethyl-2-(2-methoxypyridin-4-yl)-6-[4-(1-methyl-1H-1,2,3-triazole-5-carbonyl)piperazin-1-yl]-7-oxo-4H,7H-[1,2,4]triazolo[1,5-a]pyrimidin-4-yl]acetamide]

Further lines, the compound ahead of its results:

Structure (SMILES) | IC50 [µM]
CCc1c(N2CCN(C(=O)C(C)(C)O)CC2)c(=O)n2nc(C3=CCOCC3)nc2n1CC(=O)Nc1ccc(C(F)(F)F)cc1Cl [Compound I-18, N-[2-chloro-4-(trifluoromethyl)phenyl]-2-[2-(3,6-dihydro-2H-pyran-4-yl)-5-ethyl-6-[4-(2-hydroxy-2-methylpropanoyl)piperazin-1-yl]-7-oxo-4H,7H-[1,2,4]triazolo[1,5-a]pyrimidin-4-yl]acetamide] | 0.05 to 0.1
CCc1c(N2CCN(C(=O)c3cnn(C)c3)CC2)c(=O)n2nc(-c3cc(OC)ncc3F)nc2n1CC(=O)Nc1ccc(C(F)(F)F)cc1Cl [Compound I-72, N-[2-chloro-4-(trifluoromethyl)phenyl]-2-[5-ethyl-2-(5-fluoro-2-methoxypyridin-4-yl)-6-[4-(1-methyl-1H-pyrazole-4-carbonyl)piperazin-1-yl]-7-oxo-4H,7H-[1,2,4]triazolo[1,5-a]pyrimidin-4-yl]acetamide] | 0.005 to 0.05
CCc1c(N2CCN(C(=O)c3cccc4cn[nH]c34)CC2)c(=O)n2nc(C3=CCOCC3)nc2n1CC(=O)Nc1ccc(C(F)(F)F)cc1Cl [Compound I-14, N-[2-chloro-4-(trifluoromethyl)phenyl]-2-[2-(3,6-dihydro-2H-pyran-4-yl)-5-ethyl-6-[4-(1H-indazole-7-carbonyl)piperazin-1-yl]-7-oxo-4H,7H-[1,2,4]triazolo[1,5-a]pyrimidin-4-yl]acetamide] | < 0.005
CCc1c(N2CCN(C(=O)CC(C)(C)O)CC2)c(=O)n2nc(C3=CCOCC3)nc2n1CC(=O)Nc1ccc(C(F)(F)F)cc1Cl [Compound I-40, N-[2-chloro-4-(trifluoromethyl)phenyl]-2-[2-(3,6-dihydro-2H-pyran-4-yl)-5-ethyl-6-[4-(3-hydroxy-3-methylbutanoyl)piperazin-1-yl]-7-oxo-4H,7H-[1,2,4]triazolo[1,5-a]pyrimidin-4-yl]acetamide] | 0.05 to 0.1
CCc1c(N2CCN(C(=O)C(C)(C)C#N)CC2)c(=O)n2nc(C3=CCOCC3)nc2n1CC(=O)Nc1ccc(C(F)(F)F)cc1Cl [Compound I-31, N-[2-chloro-4-(trifluoromethyl)phenyl]-2-{6-[4-(2-cyano-2,2-dimethylacetyl)piperazin-1-yl]-2-(3,6-dihydro-2H-pyran-4-yl)-5-ethyl-7-oxo-4H,7H-[1,2,4]triazolo[1,5-a]pyrimidin-4-yl}acetamide] | 0.05 to 0.1
